Measurements as given in patent publication US12714105B2, “Herbicidal mixtures and compositions and methods of use” (priority 2020, dated 2026).

What was measured:
Type in all cases: in vivo
[1] = tested on: Large Crabgrass; assay: Pre-emergent control of Large Crabgrass in Kentucky bluegrass turf (field trial)
Procedure: A trial of formulations of the present invention (dithiopyr, isoxaben, MCPP, 2,4-D, and dicamba) was carried out and is shown in Table 2, below. The trial was initiated on Mar. 12, 2019 on Kentucky bluegrass. The turf was maintained at a height of 2½ inches, watered (twice weekly to ½ inch) and fertilized at local recommendations (0.5 lbs. once June 15th). Pre-emergent control of Large Crabgrass was evaluated as a percentage of the area in the test plots (1 xl meter and 3 replicates).

[2] = tested on: Large Crabgrass; assay: Pre-emergent control of Large Crabgrass in Tall Fescue turf (field trial)
Procedure: A trial of formulations of the present invention (dithiopyr, isoxaben, MCPP, 2,4-D, and dicamba; e.g., dithiopyr and SLWC) was carried out and is shown in Table 3, below. The trial was initiated on Mar. 12, 2019 on Tall Fescue. The turf was maintained at the height of 2½ inches and watered (twice weekly to ½ inch). Pre-emergent control of Large Crabgrass was evaluated as a percentage of the area in the test plots (1 xl meter and 3 replicates).

[3] = tested on: Broadleaf weeds (dandelions, Oxalis, plantain and white clover); assay: Pre-emergent control of Broadleaf weeds in Tall Fescue (field trial); conditions: for Percent Amount of Broadleaf weeds present in Test plots: Percent of SLWC AI's 0, Isoxaben Rate 1144 g ai/ha
Procedure: A trial of the formulation of the present invention (dithiopyr, isoxaben, MCPP, 2,4-D, and dicamba, e.g., dithiopyr and SLWC) was carried out and is shown in Table 4, below. The trial was initiated on Mar. 12, 2019 on Tall Fescue. The turf was maintained at the height of 2½ inches and watered (twice weekly to ½ inch). Pre-emergent control of Broadleaf weeds (dandelions, Oxalis, plantain and white clover) was evaluated as a percentage of the area in the test plots (1×1 meter and 3 replicates).

[4] = tested on: Broadleaf weeds (dandelions, Oxalis, and white clover); assay: Pre-emergent control of Broadleaf weeds in Kentucky bluegrass (field trial); conditions: for Percent Amount of Broadleaf weeds present in Test plots: Percent of SLWC AI's 0, Isoxaben Rate 1130 g ai/ha
Procedure: A trial of formulations of the present invention (dithiopyr, isoxaben, MCPP, 2,4-D, and dicamba, e.g., dithiopyr and SLWC) was carried out and is shown in Table 5, below. The trial was initiated on Mar. 12, 2019 on Kentucky bluegrass. The turf was maintained at a height if 2½ inches and watered (twice weekly to ½ inch). Pre-emergent control of Broadleaf weeds (dandelions, Oxalis, and white clover) was evaluated as a percentage of the area in the test plots (1×1 meter and 3 replicates).

[5] = tested on: broadleaf weeds (Oxalis, Parsley-Preriot and white clover); assay: Pre-emergent control of broadleaf weeds in Bermuda grass (field trial); conditions: for Percent Amount of Broadleaf weeds present in Test plots: Percent of SLWC AI's 0, Isoxaben Rate 1144 g ai/ha
Procedure: A trial of formulations of the present invention (dithiopyr, isoxaben, MCPP, 2,4-D, and dicamba, e.g., dithiopyr and SLWC) was carried out and is shown in Table 6, below. The trial was initiated on Mar. 12, 2019 on Bermuda grass. The turf was maintained at a height of 1½ inches and watered (weekly to ½ inch). Pre-emergent control of broadleaf weeds (Oxalis, Parsley-Preriot and white clover) were evaluated as a percentage of the area in the test plots (1×1 meter and 3 replicates).

[6] = 69 DA-A, dithiopyr only, Dithiopyr Rate 280 g ai/ha
[7] = 83 DA-A, dithiopyr only, Dithiopyr Rate 280 g ai/ha
[8] = 111 DA-A, dithiopyr only, Dithiopyr Rate 280 g ai/ha
[9] = 125 DA-A, dithiopyr only, Dithiopyr Rate 280 g ai/ha
[10] = 139 DA-A, dithiopyr only, Dithiopyr Rate 280 g ai/ha
[11] = 161 DA-A, dithiopyr only, Dithiopyr Rate 280 g ai/ha
[12] = 191 DA-A, dithiopyr only, Dithiopyr Rate 280 g ai/ha

SMILES: CSC(=O)c1c(C(F)F)nc(C(F)(F)F)c(C(=O)SC)c1CC(C)C [Dithiopyr (Dimension), Dimethyl 2-(difluoromethyl)-4-(2-methylpropyl)-6-(trifluoromethyl)pyridine-3,5-dicarbothioate]
- Large Crabgrass, percentage of the area in the test plots [1, 6]: 0%
- Large Crabgrass, percentage of the area in the test plots [1, 7]: 0%
- Large Crabgrass, percentage of the area in the test plots [1, 8]: 5.7%
- Large Crabgrass, percentage of the area in the test plots [1, 9]: 5%
- Large Crabgrass, percentage of the area in the test plots [1, 10]: 16%
- Large Crabgrass, percentage of the area in the test plots [1, 11]: 26.7%
- Large Crabgrass, percentage of the area in the test plots [1, 12]: 40%
- effect of the addition of Dithiopyr to SLWC on the pre-emergent control of Large Crabgrass ([1]; in words): did not affect
- Large Crabgrass, percentage of the area in the test plots [2, 6]: 0%
- Large Crabgrass, percentage of the area in the test plots [2, 7]: 0%
- Large Crabgrass, percentage of the area in the test plots [2, 8]: 0.7%
- Large Crabgrass, percentage of the area in the test plots [2, 9]: 5%
- Large Crabgrass, percentage of the area in the test plots [2, 10]: 7.3%
- Large Crabgrass, percentage of the area in the test plots [2, 11]: 43.3%
- Large Crabgrass, percentage of the area in the test plots [2, 12]: 50%
- effect of the addition of Dithiopyr to SLWC on the pre-emergent control of Large Crabgrass ([2]; in words): did not affect
- effect of the addition of Dithiopyr to SLWC on the pre-emergent control of broadleaf weeds provided by Isoxaben ([3]; in words): did not affect
- effect of the addition of Dithiopyr to SLWC on the pre-emergent control of broadleaf weeds provided by Isoxaben ([4]; in words): did not affect
- effect of the addition of Dithiopyr to SLWC on the pre-emergent control of broadleaf weeds provided by Isoxaben ([5]; in words): did not affect

SMILES: CCC(C)(CC)c1cc(NC(=O)c2c(OC)cccc2OC)on1 [Isoxaben (Gallery 75 DF), Isoxaben]
- Large Crabgrass, percentage of the area in the test plots ([1]; 69 DA-A, isoxaben only, LR (labelled rate)): 0%
- Large Crabgrass, percentage of the area in the test plots ([1]; 83 DA-A, isoxaben only, LR (labelled rate)): 0%
- Large Crabgrass, percentage of the area in the test plots ([1]; 111 DA-A, isoxaben only, LR (labelled rate)): 6%
- Large Crabgrass, percentage of the area in the test plots ([1]; 125 DA-A, isoxaben only, LR (labelled rate)): 15%
- Large Crabgrass, percentage of the area in the test plots ([1]; 139 DA-A, isoxaben only, LR (labelled rate)): 30%
- Large Crabgrass, percentage of the area in the test plots ([1]; 161 DA-A, isoxaben only, LR (labelled rate)): 28.3%
- Large Crabgrass, percentage of the area in the test plots ([1]; 191 DA-A, isoxaben only, LR (labelled rate)): 73.3%
- Large Crabgrass, percentage of the area in the test plots ([2]; 69 DA-A, isoxaben only (rate not given)): 0%
- Large Crabgrass, percentage of the area in the test plots ([2]; 83 DA-A, isoxaben only (rate not given)): 0%
- Large Crabgrass, percentage of the area in the test plots ([2]; 111 DA-A, isoxaben only (rate not given)): 7.7%
- Large Crabgrass, percentage of the area in the test plots ([2]; 125 DA-A, isoxaben only (rate not given)): 16%
- Large Crabgrass, percentage of the area in the test plots ([2]; 139 DA-A, isoxaben only (rate not given)): 21.7%
- Large Crabgrass, percentage of the area in the test plots ([2]; 161 DA-A, isoxaben only (rate not given)): 58.3%
- Large Crabgrass, percentage of the area in the test plots ([2]; 191 DA-A, isoxaben only (rate not given)): 63.3%
- Percent Amount of Broadleaf weeds present in Test plots ([3]; 6 DA-A): 3.3%
- Percent Amount of Broadleaf weeds present in Test plots ([3]; 29 DA-A): 2.7%
- Percent Amount of Broadleaf weeds present in Test plots ([3]; 55 DA-A): 2%
- Percent Amount of Broadleaf weeds present in Test plots ([3]; 83 DA-A): 8.3%
- Percent Amount of Broadleaf weeds present in Test plots ([3]; 111 DA-A): 2.7%
- Percent Amount of Broadleaf weeds present in Test plots ([3]; 125 DA-A): 0.7%
- Percent Amount of Broadleaf weeds present in Test plots ([3]; 139 DA-A): 4%
- Percent Amount of Broadleaf weeds present in Test plots ([3]; 161 DA-A): 0%
- Percent Amount of Broadleaf weeds present in Test plots ([4]; 6 DA-A): 4.3%
- Percent Amount of Broadleaf weeds present in Test plots ([4]; 29 DA-A): 5%
- Percent Amount of Broadleaf weeds present in Test plots ([4]; 55 DA-A): 14%
- Percent Amount of Broadleaf weeds present in Test plots ([4]; 83 DA-A): 9.7%
- Percent Amount of Broadleaf weeds present in Test plots ([4]; 111 DA-A): 17.3%
- Percent Amount of Broadleaf weeds present in Test plots ([4]; 125 DA-A): 6.3%
- Percent Amount of Broadleaf weeds present in Test plots ([4]; 139 DA-A): 7.7%
- Percent Amount of Broadleaf weeds present in Test plots ([4]; 161 DA-A): 1.7%
- Percent Amount of Broadleaf weeds present in Test plots ([5]; 6 DA-A): 6.3%
- Percent Amount of Broadleaf weeds present in Test plots ([5]; 29 DA-A): 8.3%
- Percent Amount of Broadleaf weeds present in Test plots ([5]; 55 DA-A): 11%
- Percent Amount of Broadleaf weeds present in Test plots ([5]; 83 DA-A): 3.3%
- Percent Amount of Broadleaf weeds present in Test plots ([5]; 111 DA-A): 3%
- Percent Amount of Broadleaf weeds present in Test plots ([5]; 125 DA-A): 0%
- Percent Amount of Broadleaf weeds present in Test plots ([5]; 139 DA-A): 0.7%
- Percent Amount of Broadleaf weeds present in Test plots ([5]; 161 DA-A): 0.3%
